Assay results taken from the NIST ThermoML archive (doi:10.1016/j.jct.2007.01.017).

Key:
[1] = Liquid; for mass density: 298.15 K, 101.33 kPa; for vapor or sublimation pressure: 313.15 K
[2] = excess molar enthalpy (molar enthalpy of mixing); xn = mol fraction of the nth substance listed; details: 101 kPa, Liquid, Flow calorimetry

CCCCCl [1-chlorobutane]
[1]
Details | mass density [kg/m3] | vapor or sublimation pressure [kPa]
– | 880.72 | 25.72

CCCCCl [1-chlorobutane] + CC(=O)N(C)C
[2]
Details | excess molar enthalpy [kcal/mol]
298.15 K, x2 = 0.06 | 0.0163
298.15 K, x2 = 0.111 | 0.0337
298.15 K, x2 = 0.212 | 0.0583
298.15 K, x2 = 0.312 | 0.0748
298.15 K, x2 = 0.412 | 0.0846
298.15 K, x2 = 0.511 | 0.0868
298.15 K, x2 = 0.61 | 0.0832
298.15 K, x2 = 0.708 | 0.0729
298.15 K, x2 = 0.805 | 0.0559
298.15 K, x2 = 0.902 | 0.0311
298.15 K, x2 = 0.95 | 0.0165
308.15 K, x2 = 0.057 | 0.0163
308.15 K, x2 = 0.106 | 0.0335
308.15 K, x2 = 0.206 | 0.0588
308.15 K, x2 = 0.305 | 0.076
308.15 K, x2 = 0.404 | 0.0865
308.15 K, x2 = 0.503 | 0.0896
308.15 K, x2 = 0.602 | 0.0863
308.15 K, x2 = 0.7 | 0.0758
308.15 K, x2 = 0.799 | 0.0581
308.15 K, x2 = 0.897 | 0.0332
308.15 K, x2 = 0.946 | 0.0172
308.15 K, x2 = 0.966 | 0.0098

CCCCCl [1-chlorobutane] + CN(C)C=O
excess molar enthalpy [kcal/mol], [2]
Details | 298.15 K | 308.15 K
x2 = 0.056 | 0.0294 | –
x2 = 0.058 | – | 0.028
x2 = 0.106 | 0.0571 | –
x2 = 0.108 | – | 0.0552
x2 = 0.207 | 0.0966 | 0.0956
x2 = 0.306 | – | 0.121
x2 = 0.308 | 0.122 | –
x2 = 0.404 | – | 0.136
x2 = 0.407 | 0.135 | –
x2 = 0.503 | – | 0.139
x2 = 0.507 | 0.136 | –
x2 = 0.602 | – | 0.132
x2 = 0.606 | 0.129 | –
x2 = 0.701 | – | 0.115
x2 = 0.705 | 0.112 | –
x2 = 0.799 | – | 0.087
x2 = 0.803 | 0.0841 | –
x2 = 0.898 | – | 0.048
x2 = 0.901 | 0.0459 | –
x2 = 0.947 | – | 0.0246
x2 = 0.95 | 0.0234 | –
x2 = 0.967 | – | 0.0146

CCCCCCCl [1-chlorohexane]
[1]
Details | mass density [kg/m3] | vapor or sublimation pressure [kPa]
– | 873.21 | 2.857

CCCCCCCl [1-chlorohexane] + CC(=O)N(C)C
excess molar enthalpy [kcal/mol], [2]
Details | 298.15 K | 308.15 K
x2 = 0.059 | – | 0.0253
x2 = 0.064 | 0.0251 | –
x2 = 0.108 | – | 0.0488
x2 = 0.113 | 0.0476 | –
x2 = 0.206 | – | 0.0935
x2 = 0.211 | 0.0908 | –
x2 = 0.304 | – | 0.124
x2 = 0.309 | 0.119 | –
x2 = 0.402 | – | 0.144
x2 = 0.407 | 0.137 | –
x2 = 0.501 | – | 0.153
x2 = 0.505 | 0.1458 | –
x2 = 0.6 | – | 0.151
x2 = 0.603 | 0.143 | –
x2 = 0.698 | – | 0.136
x2 = 0.701 | 0.129 | –
x2 = 0.798 | 0.102 | 0.108
x2 = 0.896 | 0.0588 | –
x2 = 0.897 | – | 0.0626
x2 = 0.945 | 0.0315 | –
x2 = 0.947 | – | 0.0335
x2 = 0.967 | – | 0.0201

CCCCCCCl [1-chlorohexane] + CN(C)C=O
[2]
Details | excess molar enthalpy [kcal/mol]
298.15 K, x2 = 0.058 | 0.0385
298.15 K, x2 = 0.107 | 0.0731
298.15 K, x2 = 0.205 | 0.13
298.15 K, x2 = 0.303 | 0.166
298.15 K, x2 = 0.402 | 0.1917
298.15 K, x2 = 0.5 | 0.2024
298.15 K, x2 = 0.598 | 0.1965
298.15 K, x2 = 0.697 | 0.177
298.15 K, x2 = 0.796 | 0.139
298.15 K, x2 = 0.894 | 0.0803
298.15 K, x2 = 0.944 | 0.0418
308.15 K, x2 = 0.062 | 0.0344
308.15 K, x2 = 0.111 | 0.0755
308.15 K, x2 = 0.208 | 0.133
308.15 K, x2 = 0.305 | 0.172
308.15 K, x2 = 0.403 | 0.1974
308.15 K, x2 = 0.501 | 0.2079
308.15 K, x2 = 0.6 | 0.2027
308.15 K, x2 = 0.699 | 0.182
308.15 K, x2 = 0.798 | 0.143
308.15 K, x2 = 0.897 | 0.0834
308.15 K, x2 = 0.947 | 0.0437
308.15 K, x2 = 0.967 | 0.0258

CCCCCCCCCl [1-chlorooctane]
Details | mass density [kg/m3]
[1] | 868.98

CCCCCCCCCl [1-chlorooctane] + CC(=O)N(C)C
[2]
Details | excess molar enthalpy [kcal/mol]
298.15 K, x2 = 0.067 | 0.0325
298.15 K, x2 = 0.117 | 0.0652
298.15 K, x2 = 0.215 | 0.124
298.15 K, x2 = 0.313 | 0.162
298.15 K, x2 = 0.411 | 0.186
298.15 K, x2 = 0.508 | 0.1981
298.15 K, x2 = 0.606 | 0.1962
298.15 K, x2 = 0.703 | 0.179
298.15 K, x2 = 0.8 | 0.146
298.15 K, x2 = 0.897 | 0.0884
298.15 K, x2 = 0.945 | 0.0483
308.15 K, x2 = 0.061 | 0.0323
308.15 K, x2 = 0.11 | 0.0655
308.15 K, x2 = 0.207 | 0.127
308.15 K, x2 = 0.305 | 0.168
308.15 K, x2 = 0.403 | 0.1953
308.15 K, x2 = 0.501 | 0.2089
308.15 K, x2 = 0.6 | 0.2082
308.15 K, x2 = 0.699 | 0.1912
308.15 K, x2 = 0.798 | 0.156
308.15 K, x2 = 0.898 | 0.0946
308.15 K, x2 = 0.948 | 0.0516
308.15 K, x2 = 0.968 | 0.0301

CCCCCCCCCl [1-chlorooctane] + CN(C)C=O
[2]
Details | excess molar enthalpy [kcal/mol]
298.15 K, x2 = 0.064 | 0.0416
298.15 K, x2 = 0.113 | 0.0863
298.15 K, x2 = 0.21 | 0.163
298.15 K, x2 = 0.308 | 0.212
298.15 K, x2 = 0.405 | 0.2459
298.15 K, x2 = 0.502 | 0.2598
298.15 K, x2 = 0.6 | 0.256
298.15 K, x2 = 0.698 | 0.2337
298.15 K, x2 = 0.795 | 0.189
298.15 K, x2 = 0.893 | 0.117
298.15 K, x2 = 0.942 | 0.0633
308.15 K, x2 = 0.069 | 0.0509
308.15 K, x2 = 0.117 | 0.092
308.15 K, x2 = 0.212 | 0.162
308.15 K, x2 = 0.309 | 0.2192
308.15 K, x2 = 0.406 | 0.2543
308.15 K, x2 = 0.503 | 0.2696
308.15 K, x2 = 0.601 | 0.2665
308.15 K, x2 = 0.699 | 0.2433
308.15 K, x2 = 0.798 | 0.198
308.15 K, x2 = 0.898 | 0.12
308.15 K, x2 = 0.948 | 0.0669
308.15 K, x2 = 0.968 | 0.0399

CC(=O)N(C)C [N,N-dimethylethanamide]
Details | mass density [kg/m3]
[1] | 936.34

CN(C)C=O [dimethylformamide]
Details | mass density [kg/m3]
[1] | 943.81
